Experimental data as given in patent EP0618222A2, “Dipeptid derivatives of 5-amino-4-hydroxy-hexanoic acid” (CIBA-GEIGY AG, priority 1993, dated 1994).

Tests used:
[1] = Blood level in mice after administration (HPLC of blood/plasma); type: in vivo, Mäuse; conditions: po; mouse blood, peroral 120 mg/kg, 30 min after administration; read-out: Konzentration
Method: Die pharmakodynamischen Eigenschaften der Verbindungen der Formel können beispielsweise wie folgt belegt werden: • Die zu untersuchenden Verbindungen der Formel oder (beispielsweise als Kontrolle) die entsprechende Verbindung der Formel werden in einem organischen Lösungsmittel, wie Dimethylsulfoxid (DMSO), in einer Konzentration von 240 mg/ml gelöst. Die resultierenden Lösungen werden mit 20% (w/v) Hydroxypropyl-ßcyclodextrin (HPßCD) verdünnt, um eine Konzentration der Testsubstanz von 12 mg/ml zu erhalten. Diese Lösung wird Mäusen oral durch künstliche Sonderernährung in einer Dosis von 120 mg/kg verabreicht. 30, 60, 90 und 120 min nach der Verabreichung werden die Tiere getötet und Blut entnommen. Pro Zeitpunkt werden drei bis vier Tiere untersucht. Das Blut wird heparinisiert und für die Analyse durch eine der folgenden beiden Methoden vorbereitet: Nach der ersten Methode wird Vollblut deproteinisiert durch Mischen eines Volumenteils Blut mit einem Volumenteil Acetonitril; nach Zentrifugation (10 000 g, 5 min) wird der Überstand durch Reversed-Phase-HPLC untersucht. Nach der zweiten Methode werden 2 µl einer 1 mM Lösung eines internen Standards (wie einer anderen Verbindung der Formel I) zu 0,5 ml heparinisiertem Blut zugegeben. Das Blut wird zentrifugiert (10 000 g, 5 min), und das Plasma mit demselben Volumen Acetonitril vermischt. […]

HIV-1 = test: Protection of MT-2 cells against HIV-1 infection (reverse transcriptase activity in supernatant); type: cell-based; conditions: Human immunodeficiency virus 1, MT2, 96 h; lowest concentration lowering RT activity by 90 %; MT-2 cells with HIV-1, 4 days incubation; read-out: ED90 (the source's name)
Description: In einem weiteren Test kann gezeigt werden, dass die Verbindungen der vorliegenden Erfindung Zellen, die normalerweise von HIV infiziert werden, vor einer solchen Infektion schützen oder zumindest eine solche Infektion verlangsamen. Dabei wird die menschliche T-Zell-Leukämie Zellinie MT-2 (Science 229, 563 (1985)), die empfindlich gegen den zytopathogenen Effekt von HIV ist, mit HIV-1 allein oder mit HIV-1 in Gegenwart einer der erfindungsgemässen Verbindungen inkubiert und nach einigen Tagen die Lebensfähigkeit der so behandelten Zellen beurteilt. Hierzu werden die MT-2-Zellen in RPMI 1640-Medium (Gibco, Schweiz; RPMI 1640 enthält ein Aminosäurengemisch ohne L-Gln), das mit 10% hitzeinaktiviertem fetalem Kälberserum, L-Glutamin, Hepes (2-[4-(2-Hydroxyethyl)-1-piperazino]-ethansulfonsäure) und Standardantibiotika supplementiert ist, bei 37 °C in befeuchteter Luft mit 5% CO2 gehalten. 50 µl der jeweiligen Testverbindung in Kulturmedium und 100 µl HIV-1 in Kulturmedium (800 TCID50/ml) (TCID50 = Tissue Culture Infectious Dose 50 = Dosis, die 50% der MT-2-Zellen infiziert) werden zu 4x1 0^3 exponentiell wachsenden MT-2-Zellen in 50 µl Kulturmedium pro Vertiefung auf 96-Loch-Mikrotiterplatten gegeben. Parallele Ansätze auf einerweiteren Mikrotiterplatte mit Zellen und Testverbindung erhalten 100 µl Kulturmedium ohne Virus. […]

SMILES: COc1ccc(C[C@H](C[C@H](O)[C@H](Cc2ccccc2)NC(=O)OC(C)(C)C)C(=O)N[C@H](C(=O)N[C@@H](Cc2ccccc2)C(=O)N2CCOCC2)C(C)C)cc1 [5(S)-(tert-Butoxycarbonylamino)-4(S)-hydroxy-2(R)-(p-methoxy-phenylmethyl)-6-phenyl-hexanoyl-(L)-valyl-(L)-phenyl-alanyl-morpholin-4-ylamid]
- concentration at 0.5 h [1]: 10.8 µM
- EC90 (HIV-1): 100 nM
